# In BindingDB's records for doi:10.1021/acs.jmedchem.8b01821 (Rheinische Friedrich-Wilhelms-University of Bonn, 2019):
# Experiments:
# [1] = Reversal of ABCB1-mediated multidrug resistance in human A2780/ADR cells assessed as potentiation of daunorubicin-induced cytotoxicity incubated for 72 hrs by MTT assay
# [2] = Reversal of ABCC1-mediated multidrug resistance in human H69AR cells assessed as potentiation of daunorubicin-induced cytotoxicity incubated for 72 hrs by MTT assay
# [3] = Reversal of ABCG2 (unknown origin)-mediated multidrug resistance in MDCK2 cells co-expressing BCRP (unknown origin) assessed as potentiation of SN-38-induced cytotoxicity incubated for 72 hrs by MTT assay
# [4] = Reversal of ABCB1 (unknown origin)-mediated multidrug resistance in MDCK2 cells co-expressing MDR1 (unknown origin) assessed as potentiation of daunorubicin-induced cytotoxicity incubated for 72 hrs by MTT assay
# [5] = Reversal of ABCG2-mediated multidrug resistance in human MCF-7/MX cells assessed as potentiation of SN-38-induced cytotoxicity incubated for 72 hrs by MTT assay
# [6] = Reversal of ABCC1 (unknown origin)-mediated multidrug resistance in MDCK2 cells co-expressing MRP1 (unknown origin) assessed as potentiation of daunorubicin-induced cytotoxicity incubated for 72 hrs by MTT assay
structure (smiles),measurement,setting,value
CC1CCc2c(sc3nc(-c4cccnc4)nc(N4CCN(C(C(N)=O)c5ccccc5)CC4)c23)C1 (stereo unspecified),EC50,[1],748 nM
same,EC50,[2],2690 nM
same,EC50,[3],1310 nM
same,EC50,[4],361 nM
same,EC50,[5],2730 nM
same,EC50,[6],728 nM
